Results from ChEMBL document CHEMBL3045093, “Synthesis, spectral correlation and insect antifeedant activities of some 2-benzimidazole chalcones” (J Saudi Chem Soc, 2013).
The source made the active and inactive calls. No cut-off for these calls is given here.

What follows are compounds tested on Achaea janata (assay: Antifeedant activity against 4th instar larvae of Achaea janata in […] leaves assessed as total leaf disc consumed at 150 ppm after 24 hrs by leaf disc bioassay).
Assay type: functional, organism-based

SMILES	Activity
O=C(/C=C/c1ccc(Br)cc1)c1nc2ccccc2[nH]1	Active

These compounds were tested on Achaea janata (assay: Antifeedant activity against 4th instar larvae of Achaea janata in […] leaves assessed as total leaf disc consumed at 200 ppm after 24 hrs by leaf disc bioassay).
Assay type: functional, organism-based

SMILES	Activity
O=C(/C=C/c1ccc([N+](=O)[O-])cc1)c1nc2ccccc2[nH]1	Active
O=C(/C=C/c1cccc(Br)c1)c1nc2ccccc2[nH]1	Active
O=C(/C=C/c1cccc(Cl)c1)c1nc2ccccc2[nH]1	Active
COc1ccccc1/C=C/C(=O)c1nc2ccccc2[nH]1	Active
Cc1ccccc1/C=C/C(=O)c1nc2ccccc2[nH]1	Active
COc1cccc(/C=C/C(=O)c2nc3ccccc3[nH]2)c1	Active
CN(C)c1ccc(/C=C/C(=O)c2nc3ccccc3[nH]2)cc1	Active
Cc1cccc(/C=C/C(=O)c2nc3ccccc3[nH]2)c1	Active
O=C(/C=C/c1cccc(O)c1)c1nc2ccccc2[nH]1	Active
O=C(/C=C/c1ccc(F)cc1)c1nc2ccccc2[nH]1	Active
COc1ccc(/C=C/C(=O)c2nc3ccccc3[nH]2)cc1	Active
O=C(/C=C/c1ccccc1)c1nc2ccccc2[nH]1	Active
O=C(/C=C/c1ccccc1Cl)c1nc2ccccc2[nH]1	Active
O=C(/C=C/c1ccc(O)cc1)c1nc2ccccc2[nH]1	Active
Cc1ccc(/C=C/C(=O)c2nc3ccccc3[nH]2)cc1	Active
O=C(/C=C/c1ccc(Cl)cc1)c1nc2ccccc2[nH]1	Active
O=C(/C=C/c1cccc([N+](=O)[O-])c1)c1nc2ccccc2[nH]1	Active
O=C(/C=C/c1ccccc1O)c1nc2ccccc2[nH]1	Active
O=C(/C=C/c1ccccc1[N+](=O)[O-])c1nc2ccccc2[nH]1	Active
O=C(/C=C/c1ccccc1Br)c1nc2ccccc2[nH]1	Active
O=C(/C=C/c1ccc(Br)cc1)c1nc2ccccc2[nH]1	Active
